Reference: PubChem BioAssay (NCI)
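Five compound concentrations were applied to cells in 96-well plates for 48 hours; endpoints were derived by simple linear interpolation of the resulting dose-response curve. TGI: total growth inhibition.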

Experiments:
Experiment in all cases: NCI anticancer screen, dose series, 48 h
OVCAR-4 ovarian = test system: OVCAR-4 ovarian
MDA-N = test system: MDA-N
CCRF-CEM leukemia = test system: CCRF-CEM leukemia
HCT-15 colon = test system: HCT-15 colon
SK-MEL-28 melanoma = test system: SK-MEL-28 melanoma
U251 CNS = test system: U251 CNS
NCI-H460 lung = test system: NCI-H460 lung
NCI/ADR-RES ovarian = test system: NCI/ADR-RES ovarian
KM12 colon = test system: KM12 colon
HCC-2998 colon = test system: HCC-2998 colon
UACC-62 melanoma = test system: UACC-62 melanoma
MALME-3M melanoma = test system: MALME-3M melanoma
NCI-H226 lung = test system: NCI-H226 lung
OVCAR-3 ovarian = test system: OVCAR-3 ovarian
ACHN renal = test system: ACHN renal
MOLT-4 leukemia = test system: MOLT-4 leukemia
T-47D breast = test system: T-47D breast
K-562 leukemia = test system: K-562 leukemia
CAKI-1 renal = test system: CAKI-1 renal
SF-539 CNS = test system: SF-539 CNS
COLO 205 colon = test system: COLO 205 colon
A549 NSCLC = test system: A549 NSCLC
PC-3 prostate = test system: PC-3 prostate
NCI-H23 lung = test system: NCI-H23 lung
NCI-H522 lung = test system: NCI-H522 lung
HOP-92 NSCLC = test system: HOP-92 NSCLC
IGROV1 ovarian = test system: IGROV1 ovarian
EKVX NSCLC = test system: EKVX NSCLC
HL-60(TB) leukemia = test system: HL-60(TB) leukemia
HOP-62 NSCLC = test system: HOP-62 NSCLC
SW-620 colon = test system: SW-620 colon
RXF 393 renal = test system: RXF 393 renal
HCT-116 colon = test system: HCT-116 colon
UO-31 renal = test system: UO-31 renal
BT-549 breast = test system: BT-549 breast
MDA-MB-231 breast = test system: MDA-MB-231 breast
SNB-19 CNS = test system: SNB-19 CNS
SF-268 CNS = test system: SF-268 CNS
SNB-75 CNS = test system: SNB-75 CNS
LOX IMVI melanoma = test system: LOX IMVI melanoma
HS 578T breast = test system: HS 578T breast
SR leukemia = test system: SR leukemia
MDA-MB-435 = test system: MDA-MB-435
786-0 renal = test system: 786-0 renal
OVCAR-8 ovarian = test system: OVCAR-8 ovarian
SK-MEL-5 melanoma = test system: SK-MEL-5 melanoma
OVCAR-5 ovarian = test system: OVCAR-5 ovarian
SK-MEL-2 melanoma = test system: SK-MEL-2 melanoma
SF-295 CNS = test system: SF-295 CNS
DU-145 prostate = test system: DU-145 prostate
UACC-257 melanoma = test system: UACC-257 melanoma
A498 renal = test system: A498 renal
SN12C renal = test system: SN12C renal
MCF7 breast = test system: MCF7 breast
HT29 colon = test system: HT29 colon
RPMI-8226 leukemia = test system: RPMI-8226 leukemia
TK-10 renal = test system: TK-10 renal
M14 melanoma = test system: M14 melanoma
SK-OV-3 ovarian = test system: SK-OV-3 ovarian

Measured: TGI

CCCCON1C[C@@H](O)C(O)[C@@H](O)C1 (stereo partly specified)
> 100 µM: OVCAR-4 ovarian | MDA-N | CCRF-CEM leukemia | HCT-15 colon | SK-MEL-28 melanoma | U251 CNS | NCI-H460 lung | NCI/ADR-RES ovarian | KM12 colon | HCC-2998 colon | UACC-62 melanoma | MALME-3M melanoma | NCI-H226 lung | OVCAR-3 ovarian | ACHN renal | MOLT-4 leukemia | T-47D breast | K-562 leukemia | CAKI-1 renal | SF-539 CNS | COLO 205 colon | A549 NSCLC | PC-3 prostate | NCI-H23 lung | NCI-H522 lung | HOP-92 NSCLC | IGROV1 ovarian | EKVX NSCLC | HL-60(TB) leukemia | HOP-62 NSCLC | SW-620 colon | RXF 393 renal | HCT-116 colon | UO-31 renal | BT-549 breast | MDA-MB-231 breast | SNB-19 CNS | SF-268 CNS | SNB-75 CNS | LOX IMVI melanoma | HS 578T breast | SR leukemia | MDA-MB-435 | 786-0 renal | OVCAR-8 ovarian | SK-MEL-5 melanoma | OVCAR-5 ovarian | SK-MEL-2 melanoma | SF-295 CNS | DU-145 prostate | UACC-257 melanoma | A498 renal | SN12C renal | MCF7 breast | HT29 colon | RPMI-8226 leukemia | TK-10 renal | M14 melanoma

COc1ccc(N(C)S(=O)(=O)c2ccccc2)cc1
> 100 µM: OVCAR-4 ovarian | MDA-N | CCRF-CEM leukemia | HCT-15 colon | SK-MEL-28 melanoma | U251 CNS | NCI-H460 lung | NCI/ADR-RES ovarian | KM12 colon | HCC-2998 colon | UACC-62 melanoma | MALME-3M melanoma | NCI-H226 lung | OVCAR-3 ovarian | ACHN renal | MOLT-4 leukemia | T-47D breast | K-562 leukemia | CAKI-1 renal | SF-539 CNS | COLO 205 colon | A549 NSCLC | PC-3 prostate | NCI-H23 lung | NCI-H522 lung | IGROV1 ovarian | EKVX NSCLC | HL-60(TB) leukemia | HOP-62 NSCLC | SW-620 colon | RXF 393 renal | HCT-116 colon | UO-31 renal | BT-549 breast | MDA-MB-231 breast | SNB-19 CNS | SF-268 CNS | SNB-75 CNS | LOX IMVI melanoma | HS 578T breast | SR leukemia | MDA-MB-435 | 786-0 renal | OVCAR-8 ovarian | SK-MEL-5 melanoma | OVCAR-5 ovarian | SK-MEL-2 melanoma | SK-OV-3 ovarian | SF-295 CNS | DU-145 prostate | UACC-257 melanoma | SN12C renal | MCF7 breast | HT29 colon | RPMI-8226 leukemia | TK-10 renal | M14 melanoma

COc1ccc(NC(=O)CC(=O)N2N=C(N3CCCCC3)CC2c2ccccc2)cc1 (stereo unspecified)
> 100 µM: OVCAR-4 ovarian | MDA-N | CCRF-CEM leukemia | HCT-15 colon | SK-MEL-28 melanoma | U251 CNS | NCI-H460 lung | NCI/ADR-RES ovarian | KM12 colon | HCC-2998 colon | UACC-62 melanoma | MALME-3M melanoma | NCI-H226 lung | OVCAR-3 ovarian | ACHN renal | MOLT-4 leukemia | T-47D breast | CAKI-1 renal | SF-539 CNS | COLO 205 colon | A549 NSCLC | PC-3 prostate | NCI-H23 lung | NCI-H522 lung | HOP-92 NSCLC | IGROV1 ovarian | EKVX NSCLC | HL-60(TB) leukemia | HOP-62 NSCLC | SW-620 colon | RXF 393 renal | HCT-116 colon | UO-31 renal | BT-549 breast | MDA-MB-231 breast | SNB-19 CNS | SF-268 CNS | SNB-75 CNS | LOX IMVI melanoma | HS 578T breast | SR leukemia | MDA-MB-435 | 786-0 renal | OVCAR-8 ovarian | SK-MEL-5 melanoma | OVCAR-5 ovarian | SK-MEL-2 melanoma | SF-295 CNS | DU-145 prostate | UACC-257 melanoma | A498 renal | SN12C renal | MCF7 breast | HT29 colon | TK-10 renal | M14 melanoma
